pEC50, pIC50: −log10 of the molar value. Like-named read-outs stand apart in the source and are kept apart here.

In assay [1] the test system is HCMV-Rluc virus (AD169 pp28-hRluc rUL131). Kind of assay: CMV Luciferase Assay of Compounds 243-262 in ARPE-19 cells. The assay is classed as cell-based. Conditions: read-out: CMV-Luc Cellular EC50 in ARPE-19. As for the experimental part:
CMV Luciferase Assay of Compounds 243-262.
Compounds 243-262 were tested in a luminescence assay as follows.
ARPE-19 cells were maintained in growth medium (DMEM/F12 Glutamax+10 fetal bovine serum (FBS)+PenStrep) and, before reaching full confluence, were transferred to a centrifuge tube and spun for 5 minutes at 1000 rpm. The cells were resuspended in assay medium (DMEM/F12 Glutamax+2% FBS+PenStrep) and counted. Cell density was adjusted to one million cells per milliliter and infected with HCMV-Rluc virus (AD169 pp28-hRluc rUL131; MOI 0.6) in a 50 ml conical tube for 2 hours while shaking. After dilution of the infectious suspension ten-fold (to 100,000 cells per milliliter), 8000 cells are directly plated in 384-well plates pre-spotted with the compound to be tested. The cells were incubated for 72 hours at 37 degrees Celsius. Cells were then placed at room temperature and allowed to equilibrate for 20 minutes before addition of the Renilla-Glo (Promega) reagent. After a 10-minute incubation at room temperature, luminescence was measured on a microplate reader.

In the next assay the target is CMV-polymerase (Human cytomegalovirus (strain AD169) (HHV-5) (Human herpesvirus 5), UniProt P08546). Kind of assay: biochemical. Conditions: CMV-polymerase Biochemical IC50.
For a further assay, the system named is CMV. The assay can be described thus: microbe, parasite or virus in culture. The format is cell-based. The note with it: Human betaherpesvirus 5, 72 h, read-out: CMV-Luc Cellular EC50, NN-NHDF cells, MOI 1, 72 hrs.
The next assay deals with HSV-polymerase (Human herpesvirus 1 (strain 17) (HHV-1) (Human herpes simplex virus 1), UniProt P04293). Kind of assay: biochemical.
[2] abbreviates: Human betaherpesvirus 5, AD169, ARPE-19, 72 h.

For `Cn1nc(C(=O)NCc2ccc(C#N)cc2)c2c1C(=O)N(CC1(S(=O)(=O)Nc3cnccn3)CC1)CC2` [Example 245, N-(4-cyanobenzyl)-1-methyl-7-oxo-6-((1-(N-(pyrazin-2-yl)sulfamoyl)cyclopropyl)methyl)-4,5,6,7-tetrahydro-1H-pyrazolo[3,4-c]pyridine-3-carboxamide], in assay [1] (setting [2]), the pEC50 is 6.74. For `Cn1nc(C(=O)NCc2ccc(C#N)cc2)c2c1C(=O)N(CC1(S(=O)(=O)NCc3cnccn3)CC1)CC2` [Example 260, N-(4-cyanobenzyl)-1-methyl-7-oxo-6-((1-(N-(pyrazin-2-ylmethyl)sulfamoyl)cyclopropyl)methyl)-4,5,6,7-tetrahydro-1H-pyrazolo[3,4-c]pyridine-3-carboxamide], in assay [1] (setting [2]), the pEC50 is 6.56. For `Cn1nc(C(=O)NCc2ccc(C#N)cc2)c2c1C(=O)N(CC1(S(=O)(=O)N3C[C@H](O)[C@@H](O)C3)CC1)CC2` [Example 255, N-(4-cyanobenzyl)-6-((1-(((3S,4S)-3,4-dihydroxypyrrolidin-1-yl)sulfonyl)cyclopropyl)methyl)-1-methyl-7-oxo-4,5,6,7-tetrahydro-1H-pyrazolo[3,4-c]pyridine-3-carboxamide], the pEC50 in assay [1] (setting [2]) was 6.51. Consider `CN(C)C(=O)CCNS(=O)(=O)C1(CN2CCc3c(C(=O)NCc4ccc(C#N)cc4)nn(C)c3C2=O)CC1` [Example 254, N-(4-cyanobenzyl)-6-((1-(N-(3-(dimethylamino)-3-oxopropyl)sulfamoyl)cyclopropyl)methyl)-1-methyl-7-oxo-4,5,6,7-tetrahydro-1H-pyrazolo[3,4-c]pyridine-3-carboxamide], for which, in assay [1] (setting [2]), the pEC50 is 6.00.

Consider `Cn1nc(C(=O)NCc2ccc(Cl)c(F)c2)c2c1C(=O)N(CC1(S(=O)(=O)C(C)(C)C(O)CO)CC1)CC2` (centres unmarked) [Example 249, N-(4-chloro-3-fluorobenzyl)-6-((1-((3,4-dihydroxy-2-methylbutan-2-yl)sulfonyl)cyclopropyl)methyl)-1-methyl-7-oxo-4,5,6,7-tetrahydro-1H-pyrazolo[3,4-c]pyridine-3-carboxamide], for which, in assay [1] (setting [2]), the pEC50 is 8.08. `CC(=O)Nc1cccc(NS(=O)(=O)C2(CN3CCc4c(C(=O)NCc5ccc(C#N)cc5)nn(C)c4C3=O)CC2)n1` [Example 244, 6-((1-(N-(6-acetamidopyridin-2-yl)sulfamoyl)cyclopropyl)methyl)-N-(4-cyanobenzyl)-1-methyl-7-oxo-4,5,6,7-tetrahydro-1H-pyrazolo[3,4-c]pyridine-3-carboxamide]: the pEC50 in assay [1] (setting [2]) was 6.93.

As to `Cn1nc(C(=O)NCc2ccc(C#N)cc2)c2c1C(=O)N(CC1(S(=O)(=O)NC3(c4cccnn4)CC3)CC1)CC2` [Example 256, N-(4-cyanobenzyl)-1-methyl-7-oxo-6-((1-(N-(1-(pyridazin-3-yl)cyclopropyl)sulfamoyl)cyclopropyl)methyl)-4,5,6,7-tetrahydro-1H-pyrazolo[3,4-c]pyridine-3-carboxamide], in assay [1] (setting [2]), the pEC50 was 5.00. For the compound `Cn1nc(C(=O)NCc2ccc(C#N)cc2)c2c1C(=O)N(CC1(S(=O)(=O)C(C)(C)C(O)CO)CC1)CC2` (centres unmarked) [Example 252, N-(4-cyanobenzyl)-6-((1-((3,4-dihydroxy-2-methylbutan-2-yl)sulfonyl)cyclopropyl)methyl)-1-methyl-7-oxo-4,5,6,7-tetrahydro-1H-pyrazolo[3,4-c]pyridine-3-carboxamide], in assay [1] (ARPE-19 cells, MOI 0.6, 72 hours), the pEC50 is 7.66. Take `CC(O)COCC(C)(C)S(=O)(=O)C1(CN2CCc3c(C(=O)NCc4ccc(C#N)cc4)nn(C)c3C2=O)CC1` (single isomer, unassigned) [Example 90, (R)- or (S)-N-(4-Cyanobenzyl)-6-((1-((1-(2-hydroxypropoxy)-2-methylpropan-2-yl)sulfonyl)cyclopropyl)methyl)-1-methyl-7-oxo-4,5,6,7-tetrahydro-1H-pyrazolo[3,4-c]pyridine-3-carboxamide]: the values for the pIC50 against CMV-polymerase and against HSV-polymerase were 8.15 and 7.01, respectively. Besides, in the assay on CMV, the negative logarithm of the EC50 (pEC50) is 7.24.
